From patent publication US7666617B2, “Devices and methods for profiling enzyme substrates” (University of Maryland, Baltimore County, priority 2005, dated 2010)

Assays:
endogenous kinase NM23 = experiment: Endogenous NM23 kinase signal (internal control) in the CK2α reverse in-gel kinase assay; details: 75 μM apigenin in assay buffer; LNCaP lysate
Description: 300 μg of LNCaP lysate was treated with bacteriophage λ phosphatase at 30° C. for 1 hour. The lysate was then precipitated with TCA, resolublized in IEF rehydration buffer and applied to CKα reverse in-gel kinase assay with 25 μg of recombinant human CK2α cast in the gel. 75 μM apigenin was added in the reverse in-gel kinase assay buffer and a parallel assay was performed with same volume of vehicle (DMSO) added to the reaction buffer.

Protein Kinase A (PKA) = experiment: PKA RIKA of TBB-treated LNCaP cell extract; type: cell-based; details: TBB-treated vs vehicle-treated LNCaP lysate; RIKA gel with 50 μg/ml recombinant PKA
Description: FIG. 8A-8B, an equivalent mass of protein used for the RIKA shown in FIGS. 7A-7E was applied to a RIKA gel containing 50 μg/ml recombinant PKA. Arrows designates the activity of the endogenous kinase NM23 H1 which serves as an internal control. FIG. 8A is an autoradiogram of the PKA RIKA using the vehicle-treated lysates.

Row | effect on endogenous kinase NM23 signal (endogenous kinase NM23) | SMILES | signal intensity of proteins detected in PKA RIKA, TBB-treated extract (Protein Kinase A (PKA))
1 | not affected | O=c1cc(-c2ccc(O)cc2)oc2cc(O)cc(O)c12 [Apigenin, apigenin] | –
2 | – | Brc1c(Br)c(Br)c2[nH]nnc2c1Br [TBB, 4,5,6,7 tetrabromobenzotriazole] | No increase
